Results reported in US12404304B1, “Telomerase reverse transcriptase (TERT) expression enhancing compounds and methods for using the same” (Sierra Sciences, LLC, priority 2007, dated 2025).

How the values were obtained:
[1] = system: human TERT expression (hTERT mRNA); test: Quantitative real-time RT-PCR of hTERT mRNA expression (Ct, transcripts) in compound-treated cells; type: cell-based; conditions: quantitative real-time RT-PCR
Text: Telomerase is a ribonucleoprotein complex composed of the catalytic protein subunit (human telomerase reverse transcriptase or hTERT) and the RNA template. hTERT expression level can be measured by PCR.
Briefly, amplification of the target sequence is monitored per PCR cycle by detecting the fluorescence signal emitted by an internal probe that is degraded by the 5′ nuclease activity of the Taq polymerase. The emission signal accumulates in each sample, and the Ct required to reach a given fluorescence threshold is determined (Ct stands for Cycle Threshold and is a measure of the number of PCR cycles that are required to amplify a target—thus, a lower Ct score means that there is more abundant hTERT mRNA). Thus, the Ct value of a sample inversely correlates to the quantity of the starting cDNA which correlates to the number of mRNA transcripts. Using the cDNA of known quantity, a standard curve can be generated and used to determine the starting amount of mRNA transcripts based on the […] of each sample.
Quantitative real-time PCR can be done on cDNA from test compound-treated and nontreated cells by use of a ABI Prism 7900 Sequence Detection System (PE Applied Biosystems, Foster City, CA) following the Assays-on-Demand protocol (PE Applied Biosystems, Foster City, CA). Quantitative data can be analyzed using the Sequence Detection System software version 2.1 (PE Applied Biosystems).
The following compounds were tested in assays designed to identify compounds that enhance human TERT expression.

viable cells in culture = test: Cell viability assay (CellTiter-Glo Luminescent Cell Viability Assay, ATP quantitation, percent of vehicle control)

SMILES	Average Number of hTERT Transcripts [1]	Average Cell Viability after 24 Hours (% DMSO) (viable cells in culture)
O=C(NCCCn1ccnc1)c1cc(-c2ccc(F)cc2)on1 [compound 1179]	3.70	97.79
CCCNC(=O)c1cc(-c2ccc(F)cc2)on1 [compound 1180]	56.10	81.47
CCCCNC(=O)c1cc(-c2ccc(F)cc2)on1 [compound 1181]	24.74	85.44
C=CCNC(=O)c1cc(-c2ccc(F)cc2)on1 [compound 1182]	19.03	87.44
O=C(NCCCN1CCOCC1)c1cc(-c2cccs2)on1 [compound 1183]	37.61	88.76
O=C(NC1CCCC1)c1cc(-c2cccs2)on1 [compound 1184]	73.49	88.36
O=C(NCCc1ccccc1)c1cc(-c2cccs2)on1 [compound 1185]	20.89	80.02
O=C(NCCCn1ccnc1)c1cc(-c2cccs2)on1 [compound 1186]	367.36	94.79
O=C(NCCN1CCOCC1)c1cc(-c2cccs2)on1 [compound 1187]	61.19	95.94
CCCNC(=O)c1cc(-c2cccs2)on1 [compound 1188, 5-thiophen-2-yl-isoxazole-3-carboxylic acid propylamide]	295.07	88.71
CC(C)CNC(=O)c1cc(-c2cccs2)on1 [compound 1189]	73.15	83.26
CCCNC(=O)c1cc(-c2ccco2)on1 [compound 1190]	41.79	96.27
CCCCNC(=O)c1cc(-c2ccco2)on1 [compound 1191]	164.47	95.11
C=CCNC(=O)c1cc(-c2cccs2)on1 [compound 1192]	279.74	95.64
COc1ccc(-c2n[nH]c3c2C(c2ccc(O)cc2)N(c2ccc(Br)cc2)C3=O)cc1 (stereo not drawn) [compound 1193]	3.56	22.74
CCOC(=O)c1ccc(N2C(=O)c3[nH]nc(-c4ccccc4)c3C2c2ccccc2OC)cc1 (stereo not drawn) [compound 1194]	6.20	76.71
Cc1cccnc1Nc1nc(-c2ccccn2)cs1 [compound 1195]	220.50	95.66
COCCNC(=O)c1cc(-c2cccs2)on1 [compound 1196]	163.15	98.07
CCCCNC(=O)c1cc(-c2cccs2)on1 [compound 1197]	168.54	88.24
CCOC(=O)c1ccc(N2C(=O)c3[nH]nc(-c4ccco4)c3C2c2ccc(O)cc2)cc1 (stereo not drawn) [compound 1198]	104.02	64.75
CCOC(=O)c1ccc(N2C(=O)c3[nH]nc(-c4cccs4)c3C2c2ccc(O)c(OCC)c2)cc1 (stereo not drawn) [compound 1199]	110.78	57.55
CCCc1nnc(NC(=O)CSc2nnc(-c3cccs3)o2)s1 [compound 1200]	198.48	74.03
O=C(Nc1nc(-c2ccccn2)cs1)c1nc2ccccc2s1 [compound 1201]	49.55	74.59
O=C(CS(=O)(=O)c1ccccc1)Nc1nc(-c2ccccn2)cs1 [compound 1202]	141.08	72.91
O=C(CS(=O)(=O)c1ccc(F)cc1)Nc1nc(-c2ccccn2)cs1 [compound 1203]	119.23	73.09
O=C(Nc1nc(-c2ccccn2)cs1)C1COc2ccccc2O1 (stereo not drawn) [compound 1204]	76.87	55.98

SMILES	Average Number of hTERT Transcripts [1]	Average Cell Viability after 24 Hours (% DMSO) (viable cells in culture)
O=C(Nc1nc(-c2ccccn2)cs1)c1ccc2ncsc2c1 [compound 1205]	114.55	86.42
O=C(NCC1CCCO1)c1cc(-c2cccs2)on1 (stereo not drawn) [compound 1206]	80.15	83.74
CCNC(=O)c1cc(-c2cccs2)on1 [compound 1207]	275.25	87.06
O=C(NC1CC1)c1cc(-c2cccs2)on1 [compound 1208]	380.09	70.93
C=CCN1C(C(=O)c2ccccc2)=C(OC(=O)c2ccc(Cl)cc2)c2ccccc2S1(=O)=O [compound 1209]	21.73	91.26
O=C(CN1C(C(=O)c2ccccc2)=C(O)c2ccccc2S1(=O)=O)c1ccc(Br)cc1 [compound 1210]	26.56	62.70
O=C(CN1C(C(=O)c2ccccc2)=C(N2CCCCC2)c2ccccc2S1(=O)=O)c1ccccc1 [compound 1211]	52.31	81.77
O=C(CN1C(C(=O)c2ccccc2)=C(O)c2ccccc2S1(=O)=O)c1ccccc1 [compound 1212]	38.44	80.54
CCCN1C(C(=O)c2ccccc2)=C(OC(=O)CC)c2ccccc2S1(=O)=O [compound 1213]	5.90	69.85
CCCCN1C(C(=O)c2ccccc2)=C(OC(C)=O)c2ccccc2S1(=O)=O [compound 1214]	32.75	55.08
CCCCN1C(C(=O)c2ccccc2)=C(OC(=O)CC)c2ccccc2S1(=O)=O [compound 1215]	7.76	52.19
CCCCN1C(C(=O)c2ccccc2)=C(OC(=O)c2ccco2)c2ccccc2S1(=O)=O [compound 1216]	5.19	42.91
CCCCN1C(C(=O)c2ccccc2)=C(OC(=O)C(C)C)c2ccccc2S1(=O)=O [compound 1217]	10.04	45.00
CCCCC(=O)OC1=C(C(=O)c2ccccc2)N(CC)S(=O)(=O)c2ccccc21 [compound 1218]	3.35	82.36
Cc1nn(C)cc1CNC(=O)C1C2CCC(O2)C1C(=O)O (stereo not drawn) [compound 1220]	6.37	48.07
COc1ccc(OC)c(NC(=O)C2C3CCC(O3)C2C(=O)O)c1 (stereo not drawn) [compound 1221]	68.62	86.33
O=C(O)C1C2CCC(O2)C1C(=O)NCc1ccco1 (stereo not drawn) [compound 1222]	15.04	102.27
O=C(O)C1C2CCC(O2)C1C(=O)N1CCN(c2ccc(F)cc2)CC1 (stereo not drawn) [compound 1223]	24.63	44.16
N=c1ccn2c(n1)O[C@@H]1[C@@H](O)[C@H](CO)O[C@@H]12 [compound 1226]	31.01	77.96
Cc1cc(C)[n+]2nc3n(-c4ccccc4)c(C)cc(C)c-3c2n1 [compound 1227]	72.86	77.50
CCOC(=O)c1ccc(Nc2nc3nonc3nc2N(CC)CC)cc1 [compound 1228]	48.23	73.46
Cc1ccc(Nc2nc3nonc3nc2NC(C)(C)C)cc1C [compound 1229]	17.57	79.23
Cc1ccc(Nc2nc3nonc3nc2Nc2ccccc2F)cc1 [compound 1230]	17.54	72.00
Cc1cccc(Nc2nc3nonc3nc2Nc2ccc(F)cc2)c1C [compound 1231]	61.08	37.70
CCOc1ccc(NC(=O)c2c(NC(=O)c3ccncc3)sc3c2CCC(C(C)(C)C)C3)cc1 (stereo not drawn) [compound 1232]	23.68	112.57
